Measurements from patent US20060276440A1, “Treatment of inflammatory disorders” (priority 2005, published 2006).
“Also recorded” adds a separate entry of the source. Like-named read-outs stand apart in the source and are kept apart here.

How the values were obtained:
Format in all cases: cell-based, human
OSM signaling = experiment: […] 4A1 cell line (A549) OSM-stimulated luciferase reporter assay; conditions: for IC50: Homo sapiens, A549; for effect on OSM-mediated reporter activity: up to 1.5 μM
Description: Cell line 4A1 was established in A549 cells (a human lung cancer cell line) using BV32, a vector that carries both the luciferase and GFP reporters. Assay development was performed to optimize the conditions of the OSM-response in the 4A1 […]® line.
(§1) Reporter activities of Sentinel® clones were measured using the Steady-Glo® Luciferase assay system (Promega, Madison, Wis.), according to the manufacturer's instructions, and were normalized to cell numbers based on nucleic acid quantification (CyQuant® cell proliferations assay, Molecular Probes/Invitrogen, Carlsbad, Calif.). In order to identify potential anti-inflammatory compounds, the OSM-responding Sentinel® clone 4A1 was used for a library screen of approximately 1800 compounds.

MMP-13 = experiment: IL-1/OSM-stimulated pro-MMP-13 production in SW-1353 cells (ELISA); conditions: for IC50: Homo sapiens; for effect on OSM/IL-1-mediated pro-MMP-13 production: up to 1.5 μM
From the text: To test the compounds identified in the preliminary reporter (luciferase) activity […]® line 4A1 screen for inhibition of OSM signaling in a more physiologically relevant environment, a human cell line involved in an inflammatory disease was adapted. The human cartilage cell line SW-1353 was selected.
In the human cartilage cell line SW-1353, while IL-1 is believed to activate expression of collagenases to a small degree and OSM is believed to have no effect on collagenase expression, a combination of IL-1 and OSM is believed to lead to a synergistic activation of collagenases to much higher levels (S. Cowell et al., Biochem J 331 (Pt 2), 453 (Apr. 15, 1998). Regulation of MMP-13 in SW-1353 cells is, therefore, believed to provide a biomarker which can be used to monitor IL-1/OSM-mediated signal transduction events in secondary assays.
(§2) The same supernatants of culture media used in the primary screen were assayed for IL-1/OSM-stimulated pro-MMP-13 production and MMP-2 production by enzyme-linked immunosorbent assay (ELISA).
(§3) For matrix metalloproteinase (MMP) measures, SW1353 cells were grown to confluence in 24 well plates, washed in DMEM (with Ham's F12) and placed in 500 ul of serum free DMEM/F-12 with 0.2% lactalbumin hydrosylate with and without OsM/IL-1. After 24 hrs, supernatants were collected and the amounts of proMMP13, totalMMP2, and proMMP1 were measured using Quantikine® ELISA kit for human MMPs (R & D systems, Minneapolis, Minn.). All MMP measures were normalized to viable cell numbers based on a tetrazolium (MTS) colorimetric measure (Promega, Madison, Wis.).

4A1 reporter activity = experiment: Activation of 4A1 Sentinel luciferase reporter by cytokines; conditions: for maximum activation of 4A1 luciferase reporter over background / EC50, induced reporter activity of 4A1: 4A1 cells; for stimulatory effect on 4A1 reporter activity: other gp-130-binding cytokine family members, data not shown; for EC50, induced reporter activity of 4A1: IL-1
Description: as §1
Sentinel lines were developed by utilizing promoter trapping technology in combination with positive and negative selections to efficiently deliver reporter genes into endogenously regulated genetic sites. Using this approach, a Sentinel cell line, 4A1, in A549 lung carcinoma cells that responded specifically to OSM and IL-1 stimulation among a panel of cytokines and active compounds was established (FIG. 9A).
OSM dose-dependently activated the luciferase reporter activity of 4A1 5-7 folds over background with EC50 of approximately 50 ng/ml (FIGS. 9A and B). […] When OSM and IL-1 were added together to 4A1 cells, the reporter activity appeared to be moderately more than the sum of individual activities obtained when OSM and IL-1 added separately (FIG. 9D). However, the luciferase activity of 4A1 appeared to respond predominantly to OSM, because OSM typically produced 5-7-fold maximum activation whereas IL-1 only produced 2-fold maximum activation (FIGS. 9B and C).

MMP-2 = MMP-2 production in SW1353 cells (ELISA, control); conditions: SW-1353; FIG. 5
Description: MMP-2 production can be used as control for the potential side-effects of compounds. This is because MMP-2 levels are not believed to change in response to IL-1/OSM.
as §2, §3
Multiple control assays were performed to investigate the selectivity of CA4 action. Matrix metalloproteinase-2 (MMP-2) production in SW1353 cells was tested. Mutation of MMP-2 causes a multicentric osteolysis and arthritis syndrome (Martignetti et al., Nat Genet 28, 261-265 (2001) the entire contents of which are incorporated herein by reference), and theoretically its expression should not be affected in treating RA. CA4 at approximately 110 nM had no effect on production of MMP-2 (FIG. 12E). An A549 Sentinel line that responded to TGF-β was then tested.

[1] = 4A1 cell line, primary screen (Table 1), read-out: IC50, inhibition of OSM-stimulated (luciferase) reporter activity
[2] = 4A1 cells, mean (Examples 7, 10), read-out: IC50 values by luciferase reporter activity (OSM-stimulated)
[3] = SW1353 cells, mean (Examples 8, 10), read-out: IC50 values by pro-MMP-13 (OSM/IL-1-mediated production)

C/C=C(/C(=C/C)c1ccc(O)cc1)c1ccc(O)cc1 [Dienestrol (10), 4-((2E,4E)-4-(4-hydroxyphenyl)hexa-2,4-dien-3-yl)phenol]
IC50 (OSM signaling; [1]): 3500 nM

Clc1ccc2ncnc(NCc3ccc4c(c3)OCO4)c2c1 [MBCQ (5), 4-[[3,4-(Methylenedioxy)benzyl]amino]-6-chloroquinazoline]
IC50 (OSM signaling; [1]): 400 nM

CC1CCC2(C)CCC3C(=CCC4(C)C3CCC3C(C)(C(=O)O)C(C)CCC34C)C2C1C (stereo not drawn) [β-boswellic acid (7), 1,2,3,4,4a, 5,6,6a, 6b, 7,8,8a, 9, 10, 11, 12, 12a, 14, 14a, 14b-icosahydro-3,4,8a,11,12,14a,14b-heptamethylpicene-4-carboxylic acid]
IC50 (OSM signaling; [1]): 1900 nM

JAK inhibitor I [reference compound]
effect of pathway inhibitors on OSM-stimulated reporter activity (OSM signaling; 4A1 cells, FIG. 10A-E): inhibited the reporter activity in a dose-dependent manner

CC(=O)O[C@H]1C(=O)[C@@]2(C)[C@H]([C@H](OC(=O)c3ccccc3)[C@]3(O)C[C@H](OC(=O)[C@H](O)[C@@H](NC(=O)c4ccccc4)c4ccccc4)C(C)=C1C3(C)C)[C@]1(OC(C)=O)CO[C@@H]1C[C@@H]2O [Taxol, reference compound]
effect on 4A1 reporter activity (OSM signaling; under 200 nM, data not shown): dose-dependently inhibited
effect on MMP-13 production (MMP-13; data not shown): no effect

COC(=O)Nc1nc2ccc(C(=O)c3cccs3)cc2[nH]1 [Nocodazole, reference compound]
IC50 (OSM signaling; [2]): 104 nM
IC50 (MMP-13; [3]): > 400 nM

C[S+]([O-])c1ccc(-c2nc(-c3ccncc3)c(-c3ccc(F)cc3)[nH]2)cc1 (stereo not shown) [SB203580, reference compound]
effect of pathway inhibitors on OSM-stimulated reporter activity (OSM signaling): inhibited the reporter activity in a dose-dependent manner

COc1cccc(-c2cc(=O)c3ccccc3o2)c1N [PD98059, reference compound]
effect of pathway inhibitors on OSM-stimulated reporter activity (OSM signaling; 4A1 cells, FIG. 10A-E): inhibited the reporter activity in a dose-dependent manner

COc1c(C)c2c(c(O)c1C/C=C(\C)CCC(=O)O)C(=O)OC2 [Mycophenolic acid (3), 6-(4-Hydroxy-6-methoxy-7-methyl-3-oxo-5-phthalanyl)-4-methyl-4-hexenoic acid]
IC50 (OSM signaling; [1]): 20 nM

OSM: proinflammatory cytokine, 28-kD glycoprotein of the gp130-binding cytokine family
maximum activation of 4A1 luciferase reporter over background (4A1 reporter activity): 5-7 fold

C=C1C(=O)[C@@]23[C@H](O)C[C@@H]4C(C)(C)CC[C@H](O)[C@@]4(CO)[C@@H]2CC[C@@H]1[C@H]3O [Kamebakaurin, reference compound]
effect of pathway inhibitors on OSM-stimulated reporter activity (OSM signaling; 4A1 cells, FIG. 10A-E): inhibited the reporter activity in a dose-dependent manner

LIF: member of the gp-130-binding cytokine family
stimulatory effect on 4A1 reporter activity (4A1 reporter activity): no stimulatory effect

COc1cc([C@@H]2c3cc4c(cc3[C@H](O)[C@H]3COC(=O)[C@H]23)OCO4)cc(OC)c1OC [Podophyllotoxin, reference compound]
IC50 (OSM signaling; [2]): 277 nM
IC50 (MMP-13; [3]): 54.9 nM

cytochalacin B [reference compound]
effect on OSM-mediated reporter activity (OSM signaling; 4A1 cells, data not shown): did not have effect
effect on OSM/IL-1-mediated pro-MMP-13 production (MMP-13; SW1353 cells, data not shown): did not have effect

Cc1ccc(C(=O)Cn2c3c(sc2=N)CCCC3)cc1 [Pifithrine-alpha (12), 2-(2-imino-4,5,6,7-tetrahydrobenzothiazol-3-yl)-1-p-tolylethanone]
inhibitory effect on MMP-13 expression compared to MMP-2 expression (MMP-2): greater inhibitory effects on MMP-13 expression compared to MMP-2 expression; also recorded: preferentially inhibit MMP-13 expression compared to MMP-2 expression
IC50 (MMP-13; SW1353, SW-1353, IL-1/OSM-stimulated, secondary screen (Example 2), read-out: IC50, inhibition of MMP-13 (pro-MMP-13) production): 32000 nM

COc1cc2c(c(OC)c1OC)-c1ccc(OC)c(=O)cc1[C@@H](NC(C)=O)CC2 (atropisomer, axis not shown) [Colchicine (4), colchicine]
reduction of signal (MMP-13 secondary assay) (MMP-13; at 4 μM, SW-1353): approximately 83%

O=c1oc2ccccc2c(O)c1Cc1c(O)c2ccccc2oc1=O [Dicumarol (11), 4-hydroxy-3-((4-hydroxy-2-oxo-2H-chromen-3-yl)methyl)-2H-chromen-2-one]
IC50 (OSM signaling; [1]): 3700 nM

IL-1β: cytokine from Peprotech used to stimulate cells
maximum activation of 4A1 luciferase reporter over background (4A1 reporter activity): 2 fold
EC50, induced reporter activity of 4A1 (4A1 reporter activity): 0.028 ± 0.01 ng/mL
EC50, induced reporter activity of 4A1 (4A1 reporter activity; listed as IL-1): 0.028 ng/mL

CC[C@]1(O)C[C@@H]2CN(CCc3c([nH]c4ccccc34)[C@@](C(=O)OC)(c3cc4c(cc3OC)N(C)[C@H]3[C@@](O)(C(=O)OC)[C@H](OC(C)=O)[C@]5(CC)C=CCN6CC[C@]43[C@@H]65)C2)C1 [Vinbalstine, vinblastine, reference compound]
IC50 (OSM signaling; [2]): 3.4 ± 0.6 nM
IC50 (MMP-13; [3]): 11.6 ± 5.2 nM

IL-6: member of the gp-130-binding cytokine family
stimulatory effect on 4A1 reporter activity (4A1 reporter activity): no stimulatory effect

COC(=O)Nc1nc2cc(Sc3ccccc3)ccc2[nH]1 [Fenbendazole (6), [5-(phenylthio)-1H-benzimidazol-2-yl]carbamic acid methyl ester]
IC50 (OSM signaling; [1]): 800 nM

cytochalacin D [reference compound]
effect on OSM-mediated reporter activity (OSM signaling; 4A1 cells, data not shown): did not have effect
effect on OSM/IL-1-mediated pro-MMP-13 production (MMP-13; SW1353 cells, data not shown): did not have effect

B1: CT-1: member of the gp-130-binding cytokine family (protein, UniProt Q16619 1-201, looked up)
Cardiotrophin-1: MSRREGSLEDPQTDSSVSLLPHLEAKIRQTHSLAHLLTKYAEQLLQEYVQLQGDPFGLPSFSPPRLPVAGLSAPAPSHAGLPVHERLRLDAAALAALPPLLDAVCRRQAELNPRAPRLLRRLEDAARQARALGAAVEALLAALGAANRGPRAEPPAATASAASATGVFPAKVLGLRVCGLYREWLSRTEGDLGQLLPGGSA
stimulatory effect on 4A1 reporter activity (4A1 reporter activity): no stimulatory effect

B2: IL-11: member of the gp-130-binding cytokine family (protein, UniProt P20809 22-199, looked up)
Interleukin-11: PGPPPGPPRVSPDPRAELDSTVLLTRSLLADTRQLAAQLRDKFPADGDHNLDSLPTLAMSAGALGALQLPGVLTRLRADLLSYLRHVQWLRRAGGSSLKTLEPELGTLQARLDRLLRRLQLLMSRLALPQPPPDPPAPPLAPPSSAWGGIRAAHAILGGLHLTLDWAVRGLLLLKTRL
stimulatory effect on 4A1 reporter activity (4A1 reporter activity): no stimulatory effect

B3: CNTF: member of the gp-130-binding cytokine family (protein, UniProt P26441 1-200, looked up)
Ciliary neurotrophic factor: MAFTEHSPLTPHRRDLCSRSIWLARKIRSDLTALTESYVKHQGLNKNINLDSADGMPVASTDQWSELTEAERLQENLQAYRTFHVLLARLLEDQQVHFTPTEGDFHQAIHTLLLQVAAFAYQIEELMILLEYKIPRNEADGMPINVGDGGLFEKKLWGLKVLQELSQWTVRSIHDLRFISSHQTGIPARGSHYIANNKKM
stimulatory effect on 4A1 reporter activity (4A1 reporter activity): no stimulatory effect
